This is an account of results in the supplement of paper PMC12463676, “Small-molecule dissolution of stress granules by redox modulation benefits ALS models” (Nature Chemical Biology, 2025).

Compound in one assay: O=[As]([O-])(O)O.[K+] [potassium arsenate]
The assay can be described thus: thermal stability z-score vs DMSO; higher = more thermally stabilized by treatment. Particulars: HeLa; arsenate concentration 1 mM. Here is the method:
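Cellular thermal proteome profiling in HeLa cells treated with 1 mM arsenate for 1 h (DMSO pretreatment), heated to ten temperatures (37-66.3 °C). Soluble protein was quantified by TMT mass spectrometry relative to DMSO controls; the thermal stability score was transformed to a z-score; mean of n = 3 experiments.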

Compound in a further assay: NC(=O)CCCCC1CCSS1 [lipoamide]
Described as above. The note with it: HeLa, lipoamide concentration 100 µM. Here is the method: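 Cellular thermal proteome profiling in HeLa cells. Cells were treated with 100 µM lipoamide for 1 h, with or without 1 mM arsenate for a further 1 h, then heated to ten temperatures (37-66.3 °C), and soluble protein was quantified by TMT mass spectrometry relative to 0.1% DMSO controls. The thermal stability score (sum of log2 fold changes minus the abundance score) was transformed to a z-score; mean of n = 3 experiments.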

Setting [1] is: arsenate co-treatment: 1 mM arsenate 1 h.
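Further: each temperature applied for 3 min, abundance score taken as mean log2 fold change at the two lowest temperatures, z-score obtained by mean subtraction and division by SD.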

Sequence of UniProt P53992 (P53992 whole entry): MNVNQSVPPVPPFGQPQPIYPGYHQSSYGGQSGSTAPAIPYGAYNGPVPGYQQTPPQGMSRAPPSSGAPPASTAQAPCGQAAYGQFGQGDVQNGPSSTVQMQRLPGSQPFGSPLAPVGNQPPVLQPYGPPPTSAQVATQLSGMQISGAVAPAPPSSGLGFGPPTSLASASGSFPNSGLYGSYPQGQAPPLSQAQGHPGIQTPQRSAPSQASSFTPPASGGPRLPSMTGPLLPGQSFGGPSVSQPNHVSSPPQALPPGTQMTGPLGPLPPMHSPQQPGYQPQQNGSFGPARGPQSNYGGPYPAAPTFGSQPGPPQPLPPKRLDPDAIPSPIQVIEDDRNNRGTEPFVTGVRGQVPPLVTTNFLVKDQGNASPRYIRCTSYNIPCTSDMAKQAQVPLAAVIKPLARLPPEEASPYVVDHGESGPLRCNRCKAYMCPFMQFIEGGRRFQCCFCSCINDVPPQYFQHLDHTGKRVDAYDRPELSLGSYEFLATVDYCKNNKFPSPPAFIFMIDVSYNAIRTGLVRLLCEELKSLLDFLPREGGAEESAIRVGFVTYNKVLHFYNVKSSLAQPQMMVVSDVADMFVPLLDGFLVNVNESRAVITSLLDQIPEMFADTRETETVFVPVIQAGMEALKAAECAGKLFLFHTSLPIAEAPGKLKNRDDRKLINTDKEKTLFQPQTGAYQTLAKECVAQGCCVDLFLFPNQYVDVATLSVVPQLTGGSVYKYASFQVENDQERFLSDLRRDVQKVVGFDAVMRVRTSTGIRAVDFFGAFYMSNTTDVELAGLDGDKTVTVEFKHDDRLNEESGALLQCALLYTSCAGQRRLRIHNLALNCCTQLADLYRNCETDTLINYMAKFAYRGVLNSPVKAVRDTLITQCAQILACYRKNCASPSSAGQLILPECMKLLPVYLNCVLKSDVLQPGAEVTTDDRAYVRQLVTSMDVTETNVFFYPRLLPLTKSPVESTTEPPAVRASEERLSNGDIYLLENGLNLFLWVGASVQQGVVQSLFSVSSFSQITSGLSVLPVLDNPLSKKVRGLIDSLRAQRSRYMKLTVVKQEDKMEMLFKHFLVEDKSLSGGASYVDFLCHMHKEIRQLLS
Sequence of UniProt Q9BY44 (Q9BY44 whole entry): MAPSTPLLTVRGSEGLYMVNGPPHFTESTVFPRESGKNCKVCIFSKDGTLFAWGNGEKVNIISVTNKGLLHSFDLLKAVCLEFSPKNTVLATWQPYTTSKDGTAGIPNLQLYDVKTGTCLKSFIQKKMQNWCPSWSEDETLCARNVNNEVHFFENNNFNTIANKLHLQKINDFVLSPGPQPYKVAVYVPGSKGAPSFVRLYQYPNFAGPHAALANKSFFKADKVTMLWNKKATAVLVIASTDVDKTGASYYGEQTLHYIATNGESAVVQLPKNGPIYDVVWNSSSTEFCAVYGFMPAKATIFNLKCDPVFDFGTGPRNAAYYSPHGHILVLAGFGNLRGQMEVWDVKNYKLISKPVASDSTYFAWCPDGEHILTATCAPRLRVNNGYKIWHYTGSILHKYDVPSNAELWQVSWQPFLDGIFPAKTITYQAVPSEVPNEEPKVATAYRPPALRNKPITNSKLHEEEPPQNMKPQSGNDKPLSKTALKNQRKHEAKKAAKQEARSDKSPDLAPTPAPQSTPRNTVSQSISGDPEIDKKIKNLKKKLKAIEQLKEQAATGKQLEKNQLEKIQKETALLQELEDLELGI
Sequence of UniProt Q9NYS0 (Q9NYS0 whole entry): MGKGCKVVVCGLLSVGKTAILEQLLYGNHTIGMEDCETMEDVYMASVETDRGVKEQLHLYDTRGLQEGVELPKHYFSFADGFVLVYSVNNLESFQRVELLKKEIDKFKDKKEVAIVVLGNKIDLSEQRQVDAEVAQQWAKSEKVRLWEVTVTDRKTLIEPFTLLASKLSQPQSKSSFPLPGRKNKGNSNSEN
Sequence of UniProt Q9UNQ2 (Q9UNQ2 whole entry): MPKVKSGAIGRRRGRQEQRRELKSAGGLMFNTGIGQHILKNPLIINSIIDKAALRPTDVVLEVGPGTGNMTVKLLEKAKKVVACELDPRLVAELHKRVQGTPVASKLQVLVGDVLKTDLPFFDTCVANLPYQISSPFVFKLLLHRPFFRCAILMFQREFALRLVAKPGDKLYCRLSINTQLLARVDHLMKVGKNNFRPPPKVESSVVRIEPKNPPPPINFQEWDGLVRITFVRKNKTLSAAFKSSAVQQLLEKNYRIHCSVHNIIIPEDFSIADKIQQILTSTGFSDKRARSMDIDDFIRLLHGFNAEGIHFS
Sequence of UniProt P49458 (P49458 whole entry): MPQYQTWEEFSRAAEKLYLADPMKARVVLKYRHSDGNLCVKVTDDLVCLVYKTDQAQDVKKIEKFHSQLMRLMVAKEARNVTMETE
Sequence of UniProt Q96DX4 (Q96DX4 whole entry): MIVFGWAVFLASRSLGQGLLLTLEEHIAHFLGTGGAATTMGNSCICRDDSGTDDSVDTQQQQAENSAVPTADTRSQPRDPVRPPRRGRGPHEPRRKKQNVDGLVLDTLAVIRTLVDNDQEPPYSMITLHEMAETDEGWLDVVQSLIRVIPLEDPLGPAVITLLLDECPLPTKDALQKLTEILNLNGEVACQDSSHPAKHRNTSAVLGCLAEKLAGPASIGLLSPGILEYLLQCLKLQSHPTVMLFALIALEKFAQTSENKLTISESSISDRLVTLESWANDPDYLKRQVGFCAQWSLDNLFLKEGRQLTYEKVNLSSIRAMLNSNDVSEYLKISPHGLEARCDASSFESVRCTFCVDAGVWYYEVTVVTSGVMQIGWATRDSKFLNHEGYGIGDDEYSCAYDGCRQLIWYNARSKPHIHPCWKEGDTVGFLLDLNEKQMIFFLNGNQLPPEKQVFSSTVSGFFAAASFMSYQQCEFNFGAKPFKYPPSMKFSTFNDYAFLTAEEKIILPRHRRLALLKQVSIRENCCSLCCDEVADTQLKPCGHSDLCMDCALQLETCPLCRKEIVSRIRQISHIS
Sequence of UniProt Q96DX7 (Q96DX7 whole entry): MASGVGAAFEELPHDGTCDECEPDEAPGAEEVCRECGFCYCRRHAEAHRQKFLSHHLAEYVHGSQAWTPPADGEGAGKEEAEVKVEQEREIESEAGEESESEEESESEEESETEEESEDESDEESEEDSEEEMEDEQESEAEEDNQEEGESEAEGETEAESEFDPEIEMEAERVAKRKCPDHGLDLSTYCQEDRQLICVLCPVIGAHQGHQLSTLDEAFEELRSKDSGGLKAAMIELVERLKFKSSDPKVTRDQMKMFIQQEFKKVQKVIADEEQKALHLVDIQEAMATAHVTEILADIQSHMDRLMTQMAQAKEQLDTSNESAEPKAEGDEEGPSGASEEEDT
Sequence of UniProt Q8IY33 (Q8IY33 whole entry): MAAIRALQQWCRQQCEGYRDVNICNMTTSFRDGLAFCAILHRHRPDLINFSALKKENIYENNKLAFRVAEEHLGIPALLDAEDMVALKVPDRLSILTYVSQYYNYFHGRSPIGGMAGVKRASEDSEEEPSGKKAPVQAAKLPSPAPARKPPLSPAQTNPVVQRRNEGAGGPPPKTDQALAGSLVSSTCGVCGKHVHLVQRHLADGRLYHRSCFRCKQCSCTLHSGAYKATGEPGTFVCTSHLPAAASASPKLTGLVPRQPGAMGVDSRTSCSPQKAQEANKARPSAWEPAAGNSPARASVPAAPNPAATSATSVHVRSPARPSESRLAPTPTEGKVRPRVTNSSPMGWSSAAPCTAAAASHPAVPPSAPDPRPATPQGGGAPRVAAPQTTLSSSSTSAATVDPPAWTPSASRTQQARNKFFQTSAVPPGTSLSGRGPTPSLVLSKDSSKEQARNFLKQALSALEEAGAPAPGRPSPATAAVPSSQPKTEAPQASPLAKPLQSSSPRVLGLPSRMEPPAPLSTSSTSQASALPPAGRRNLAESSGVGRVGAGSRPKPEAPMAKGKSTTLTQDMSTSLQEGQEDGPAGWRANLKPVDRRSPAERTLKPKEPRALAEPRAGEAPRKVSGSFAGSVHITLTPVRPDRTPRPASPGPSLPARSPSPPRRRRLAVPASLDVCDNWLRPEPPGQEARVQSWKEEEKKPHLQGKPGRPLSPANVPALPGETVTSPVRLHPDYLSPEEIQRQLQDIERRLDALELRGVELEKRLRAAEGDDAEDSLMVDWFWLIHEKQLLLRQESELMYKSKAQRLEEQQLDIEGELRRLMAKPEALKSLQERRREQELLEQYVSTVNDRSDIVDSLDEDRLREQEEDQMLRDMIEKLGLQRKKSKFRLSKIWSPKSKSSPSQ
Sequence of UniProt O15258 (O15258 whole entry): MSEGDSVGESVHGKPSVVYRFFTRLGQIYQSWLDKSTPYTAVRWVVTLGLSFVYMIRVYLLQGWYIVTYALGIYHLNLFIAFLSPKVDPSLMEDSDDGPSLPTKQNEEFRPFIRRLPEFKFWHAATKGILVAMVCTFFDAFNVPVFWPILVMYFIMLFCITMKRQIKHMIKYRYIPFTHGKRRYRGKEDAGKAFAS
Sequence of UniProt P30291 (P30291 whole entry, looked up): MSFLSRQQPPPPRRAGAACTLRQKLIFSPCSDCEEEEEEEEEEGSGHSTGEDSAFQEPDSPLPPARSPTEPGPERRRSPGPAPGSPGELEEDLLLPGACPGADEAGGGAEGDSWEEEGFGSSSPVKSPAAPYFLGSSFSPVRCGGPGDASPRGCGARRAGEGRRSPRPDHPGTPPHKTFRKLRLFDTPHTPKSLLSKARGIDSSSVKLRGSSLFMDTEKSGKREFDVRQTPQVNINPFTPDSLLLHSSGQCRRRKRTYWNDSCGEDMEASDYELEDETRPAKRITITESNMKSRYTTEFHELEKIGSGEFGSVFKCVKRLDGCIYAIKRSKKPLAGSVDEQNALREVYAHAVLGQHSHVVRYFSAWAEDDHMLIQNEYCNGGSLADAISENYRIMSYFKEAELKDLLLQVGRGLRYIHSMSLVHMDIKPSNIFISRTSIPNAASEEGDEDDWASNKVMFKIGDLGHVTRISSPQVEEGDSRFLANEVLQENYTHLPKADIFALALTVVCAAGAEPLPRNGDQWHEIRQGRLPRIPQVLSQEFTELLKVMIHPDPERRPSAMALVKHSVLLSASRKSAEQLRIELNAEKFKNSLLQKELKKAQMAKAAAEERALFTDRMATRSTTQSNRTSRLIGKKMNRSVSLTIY

For the target NECAP1 (UniProt Q8NC96), the thermal stability z-score is -0.194 with potassium arsenate, 0.133 in the assay with lipoamide (setting [1]) and 0.451 with lipoamide (arsenate co-treatment: none).

As for PARP1 (UniProt P09874), the results for the thermal stability z-score in the assay with potassium arsenate, in the assay with lipoamide (setting [1]) and with lipoamide (arsenate co-treatment: none) were -2.03, -0.643 and 0.7, respectively.

Turning to AURKA (UniProt O14965), the thermal stability z-score with potassium arsenate is -0.391; with lipoamide (setting [1]) it was -0.091; with lipoamide (arsenate co-treatment: none) it was -0.269.

Take SOS1 (UniProt Q07889): the thermal stability z-score stood at 0.167 with potassium arsenate, 0.324 with lipoamide (setting [1]) and 0.304 with lipoamide (arsenate co-treatment: none).

Regarding ASB9 (UniProt Q96DX5), the thermal stability z-score with potassium arsenate was -0.202; in the assay with lipoamide (setting [1]), 0.263; with lipoamide (arsenate co-treatment: none), 0.826.

Take GGA1 (UniProt Q9UJY5): the thermal stability z-score with potassium arsenate was 0.27; with lipoamide (setting [1]), -0.523; with lipoamide (arsenate co-treatment: none) it was -0.393.

With MRPL45 (UniProt Q9BRJ2), the figures for the thermal stability z-score with potassium arsenate, with lipoamide (setting [1]) and with lipoamide (arsenate co-treatment: none) were 0.214, -0.181 and 0.0671, respectively.

On to SRP9 (UniProt P49458), for which the thermal stability z-score with potassium arsenate is -0.335; with lipoamide (setting [1]) it was 0.432; with lipoamide (arsenate co-treatment: none) it was 0.761.

Take VIM (UniProt P08670): the thermal stability z-score with potassium arsenate is 0.432; with lipoamide (setting [1]), 1.82; with lipoamide (arsenate co-treatment: none) it was 1.15.

Turning to CDC5L (UniProt Q99459), the figures for the thermal stability z-score with potassium arsenate, with lipoamide (setting [1]) and with lipoamide (arsenate co-treatment: none) were -0.167, 0.945 and 0.573, respectively.

Turning to RER1 (UniProt O15258), the figures for the thermal stability z-score in the assay with potassium arsenate, with lipoamide (setting [1]) and with lipoamide (arsenate co-treatment: none) were 0.934, 0.802 and 0.615, respectively.

Turning to LUC7L3 (UniProt O95232), the results for the thermal stability z-score with potassium arsenate, with lipoamide (setting [1]) and with lipoamide (arsenate co-treatment: none) were -0.899, -1.15 and -0.26, respectively.

In the case of PPAT (UniProt Q06203), the values for the thermal stability z-score in the assay with potassium arsenate, with lipoamide (setting [1]) and in the assay with lipoamide (arsenate co-treatment: none) were -0.0713, 0.306 and 0.28, respectively.

PLPP3 (UniProt O14495): the figures for the thermal stability z-score in the assay with potassium arsenate, with lipoamide (setting [1]) and with lipoamide (arsenate co-treatment: none) were 0.384, 0.394 and 0.448, respectively.

With TNIP1 (UniProt Q15025), the values for the thermal stability z-score with potassium arsenate, with lipoamide (setting [1]) and in the assay with lipoamide (arsenate co-treatment: none) were -0.0487, -0.261 and -0.828, respectively.

Regarding WEE1 (UniProt P30291), the figures for the thermal stability z-score in the assay with potassium arsenate, in the assay with lipoamide (setting [1]) and in the assay with lipoamide (arsenate co-treatment: none) were 0.00265, -0.142 and 0.206, respectively.

In the case of PFDN5 (UniProt Q99471), the thermal stability z-score is 1.22 with potassium arsenate, 1.81 with lipoamide (setting [1]) and 1.27 with lipoamide (arsenate co-treatment: none).

For RPS11 (UniProt P62280), the results for the thermal stability z-score with potassium arsenate, with lipoamide (setting [1]) and in the assay with lipoamide (arsenate co-treatment: none) were -1.11, 0.621 and 0.352, respectively.

Turning to HSPB8 (UniProt Q9UJY1), the thermal stability z-score with potassium arsenate was -0.597; with lipoamide (setting [1]) it was -0.255; in the assay with lipoamide (arsenate co-treatment: none), 0.0407.

Consider TRIM44 (UniProt Q96DX7), for which the thermal stability z-score was 0.419 with potassium arsenate, 0.0927 with lipoamide (setting [1]) and -0.409 in the assay with lipoamide (arsenate co-treatment: none).

Turning to SEC24C (UniProt P53992), the thermal stability z-score stood at 0.38 with potassium arsenate, 0.0998 with lipoamide (setting [1]) and 0.0631 with lipoamide (arsenate co-treatment: none).

In the case of ATP5H (UniProt O75947), the thermal stability z-score came out at 0.504 with potassium arsenate, 0.72 with lipoamide (setting [1]) and 0.597 with lipoamide (arsenate co-treatment: none).

As to NKIRAS1 (UniProt Q9NYS0), the thermal stability z-score in the assay with potassium arsenate was -0.0379; in the assay with lipoamide (setting [1]), -0.202; with lipoamide (arsenate co-treatment: none) it was -0.125.

FMNL1 (UniProt O95466): the thermal stability z-score in the assay with potassium arsenate is -0.153; with lipoamide (setting [1]), -0.412; with lipoamide (arsenate co-treatment: none) it was -0.507.

In the case of ETHE1 (UniProt O95571), the thermal stability z-score with potassium arsenate was 0.0234; with lipoamide (setting [1]) it was 0.217; in the assay with lipoamide (arsenate co-treatment: none) it was -0.107.

With RSPRY1 (UniProt Q96DX4), the thermal stability z-score was -0.152 in the assay with potassium arsenate, 0.302 with lipoamide (setting [1]) and 0.576 with lipoamide (arsenate co-treatment: none).

On to NIFK (UniProt Q9BYG3), for which the thermal stability z-score in the assay with potassium arsenate was -1.78; with lipoamide (setting [1]) it was 1.5; in the assay with lipoamide (arsenate co-treatment: none) it was 0.467.

For YWHAH (UniProt Q04917), the values for the thermal stability z-score with potassium arsenate, with lipoamide (setting [1]) and with lipoamide (arsenate co-treatment: none) were 0.138, 0.0489 and 0.303, respectively.

On to PAP1 (UniProt Q06141), for which the results for the thermal stability z-score in the assay with potassium arsenate, with lipoamide (setting [1]) and with lipoamide (arsenate co-treatment: none) were -0.156, -0.00124 and -0.19, respectively.

MICALL2 (UniProt Q8IY33): the thermal stability z-score with potassium arsenate is -0.0438; with lipoamide (setting [1]), -0.157; with lipoamide (arsenate co-treatment: none) it was 0.00775.

On to ODF2 (UniProt Q5BJF6), for which the thermal stability z-score is -0.129 with potassium arsenate, 0.0591 with lipoamide (setting [1]) and 0.0281 in the assay with lipoamide (arsenate co-treatment: none).

MOB1B|MOB1A: the thermal stability z-score was 0.896 with potassium arsenate, 1.02 with lipoamide (setting [1]) and 0.33 with lipoamide (arsenate co-treatment: none).

Regarding TPCN1 (UniProt Q9ULQ1), the thermal stability z-score with potassium arsenate was -0.538; in the assay with lipoamide (setting [1]), 0.0393; with lipoamide (arsenate co-treatment: none), -0.00808.

PPIL3 (UniProt Q9H2H8): the thermal stability z-score with potassium arsenate was -0.32; with lipoamide (setting [1]), -0.0679; with lipoamide (arsenate co-treatment: none), 0.0318.

Consider FAM120B (UniProt Q96EK7), for which the thermal stability z-score with potassium arsenate is -0.081; with lipoamide (setting [1]), 0.0177; in the assay with lipoamide (arsenate co-treatment: none), -0.0542.

In the case of ZC2HC1A (UniProt Q96GY0), the thermal stability z-score is -1.15 with potassium arsenate, 0.178 in the assay with lipoamide (setting [1]) and -0.306 with lipoamide (arsenate co-treatment: none).

Consider SZRD1 (UniProt Q7Z422), for which the thermal stability z-score with potassium arsenate is -0.0744; in the assay with lipoamide (setting [1]) it was 0.289; with lipoamide (arsenate co-treatment: none) it was 0.399.

On to DIMT1 (UniProt Q9UNQ2), for which the thermal stability z-score is -0.418 with potassium arsenate, 0.142 in the assay with lipoamide (setting [1]) and 0.0753 in the assay with lipoamide (arsenate co-treatment: none).

On to EIF2A (UniProt Q9BY44), for which the thermal stability z-score with potassium arsenate stood at 1.13; with lipoamide (setting [1]) it was 0.673; with lipoamide (arsenate co-treatment: none) it was 0.102.

In the case of GBAS (UniProt O75323), the thermal stability z-score was -0.187 in the assay with potassium arsenate, 0.0991 in the assay with lipoamide (setting [1]) and 0.0331 in the assay with lipoamide (arsenate co-treatment: none).

Turning to ALKBH1 (UniProt Q13686), the thermal stability z-score in the assay with potassium arsenate turned out to be 0.295; in the assay with lipoamide (setting [1]), 0.0966; with lipoamide (arsenate co-treatment: none) it was 0.171.

For HMGB1 (UniProt P09429), the thermal stability z-score with potassium arsenate was 0.309; in the assay with lipoamide (setting [1]) it was 0.26; with lipoamide (arsenate co-treatment: none), 0.59.

Regarding ENDOD1 (UniProt O94919), the thermal stability z-score in the assay with potassium arsenate was 0.443; with lipoamide (setting [1]), -1.14; in the assay with lipoamide (arsenate co-treatment: none) it was -0.77.
